# US6514946B1, “Macrolide antibiotics and treatment and prophylaxis of pasteurellosis using the same” (Zaidan Hojin Biseibutsu Kagaku Kenkyu Kai, priority 1999, dated 2003)
# Key:
# [1] = tested on: S. aureus FDA209P; experiment: Minimum inhibition concentration (MIC), agar double dilution method; format: cell-based, Staphylococcus aureus; details: Mueller hinton agar
# Experimental: (§1) Test 1; Minimum Inhibition Concentration (MIC)
# (§2) MIC was measured, based on the standard method of Japan Society of Chemotherapy, on a BHI agar medium (Brain heart-infusion agar, made by Difco Laboratories Inc.(USA)) with respect to Pasteurella and on a Mueller hinton agar medium (Mueller hinton agar, made by Difco, Laboratories Inc.(USA)) with respect to the other test bacteria in both cases according to the double dilution method.
# [2] = tested on: S. aureus Smith (virulent strain); experiment: microbe, parasite or virus in culture; format: cell-based, Staphylococcus aureus; details: S. aureus Smith (virulent strain); Mueller hinton agar
# Experimental: as §1, §2
# [3] = tested on: Bacillus subtilis NRRL B-558; experiment: Minimum inhibition concentration (MIC), agar double dilution method; format: cell-based; details: Bacillus subtilis NRRL B-558; Mueller hinton agar
# Experimental: as §1, §2
# [4] = tested on: Enterobacter aerogenes ATCC13048; experiment: as above; format: cell-based; details: Mueller hinton agar
# Experimental: as §1, §2
# [5] = tested on: Escherichia coli NIHJ; experiment: as above; format: cell-based; details: Mueller hinton agar
# Experimental: as §1, §2
# [6] = tested on: Klebsiella pneumoniae PCI602; experiment: as above; format: cell-based; details: Mueller hinton agar
# Experimental: as §1, §2
# [7] = tested on: Micrococcus luteus PCI1001; experiment: as above; format: cell-based; details: Mueller hinton agar
# Experimental: as §1, §2
# [8] = tested on: Pasteurella haemolytica BBPO101 N791; experiment: as above; format: cell-based; details: Pasteurella haemolytica BBPO101 N791, strain from cattle; BHI agar
# Experimental: as §1, §2
# [9] = tested on: Proteus vulgaris OX19; experiment: as above; format: cell-based; details: Mueller hinton agar
# Experimental: as §1, §2
# [10] = tested on: Salmonella enteritidis 1891; experiment: as above; format: cell-based; details: Mueller hinton agar
# Experimental: as §1, §2
# [11] = tested on: Serratia marcescens; experiment: as above; format: cell-based; details: Mueller hinton agar
# Experimental: as §1, §2
# [12] = tested on: Shigella dysenteriae JS11910; experiment: as above; format: cell-based; details: Shigella dysenteriae JS11910; Mueller hinton agar
# Experimental: as §1, §2
# [13] = tested on: Staphylococcus aureus 193; experiment: as above; format: cell-based; details: Mueller hinton agar
# Experimental: as §1, §2
# [14] = tested on: E. coli K-12 R-5; experiment: as above; format: cell-based, Escherichia coli; details: Mueller hinton agar
# Experimental: as §1, §2
# [15] = tested on: Past haemolytica BAPO103 S801; experiment: as above; format: cell-based, Pasteurella haemolytica; details: Past haemolytica BAPO103 S801, strain from poultry; BHI agar
# Experimental: as §1, §2
# [16] = tested on: Past haemolytica BBPO102 N811; experiment: as above; format: cell-based, Pasteurella haemolytica; details: Past haemolytica BBPO102 N811, strain from cattle; BHI agar
# Experimental: as §1, §2
# [17] = tested on: Past. multocida BOPO305 M-17; experiment: as above; format: cell-based, Pasteurella multocida; details: Past. multocida BOPO305 M-17, strain from a sheep; BHI agar
# Experimental: as §1, §2
# [18] = tested on: Past. multocida BSPO302 No. 6; experiment: as above; format: cell-based, Pasteurella multocida; details: Past. multocida BSPO302 No. 6, strain from a pig; BHI agar
# Experimental: as §1, §2
# [19] = tested on: ICR mice; experiment: Toxicity test, intravenous or subcutaneous injection; format: in vivo
# [20] = tested on: bovine bacterial pneumonia (Mycoplasma, Ureaplasma and Pasteurella); experiment: Clinical test against bovine bacterial pneumonia; format: in vivo, cattle; set-up: Average clinical score: scale not given here
# From the text: Test 5: Clinical Test Against Bovine Bacterial Pneumonia
# In this test, each drug was subcutaneously administered to cattle suffering from bacterial pneumonia (infectious diseases with Mycoplasma, Ureaplasma and Pasteurella), respectively, and the clinical effect of P-MT was compared with those of tilmicosin and C-9.
# Tests are made on 17 case of one to two-month-old Holstein cattle (weight 56 to 101 kg) suffering from bacterial pneumonia caused by single or mixed infection of Pasteurella, Mycoplasma, Ureaplasma and Haemophilus (6 animals for each of P-MT and C-9 and 5 animals for tilmicosin). The drug was subcutaneously administered to the animals once a day in an amount of 10 mg/kg.
# Three calves showing a similar degree of symptoms at the start of the test were arranged in one group. Each subject of the same group was respectively tested with one of the above three compounds. Ailing calves were successively grouped when being available.
# Clinical findings, based on the daily observation from the time of the administration through the 5th day of the trial, were scored on each item according to the criteria in the table below. The clinical efficacy of the compounds was judged on the 5th day.
# As to judgment based on the clinical symptoms, cases which could be judged among each group were classified into remarkably effective (85 to 100), effective (70 to under 85), a little effective (50 to under 70) and infective (under 50) according to the following improvement rate by clinical scores, and after summing up, the following effective rate was calculated, the difference in the effective rate among the groups was determined using a statistical method, and thus effectivity was judged. [formula]
# [21] = tested on: P. multocida; experiment: Bacteria separation test from nasal cavity swab; format: in vivo, cattle
# [22] = tested on: P. haemolytica; experiment: Bacteria separation test from nasal cavity swab; format: in vivo, cattle
# [23] = tested on: H. somnus; experiment: Bacteria separation test from nasal cavity swab; format: in vivo, cattle
# [24] = tested on: M. bovis; format: in vivo, cattle; details: nasal cavity swab, before administration (baseline)
# [25] = tested on: M. bovirhinis; experiment: Bacteria separation test from nasal cavity swab; format: in vivo, cattle
# [26] = tested on: Ureaplasma; experiment: Bacteria separation test from nasal cavity swab; format: in vivo, cattle
# [27] = tested on: P. haemolytica 63-39 intraperitoneally infected mice; experiment: Antiinfective test on infected mice
# [28] = tested on: P. haemolytica 63-39; experiment: Sensitivity (MIC), agar plate dilution method; details: P. haemolytica 63-39; agar plate dilution, 10^6 CFU/ml
# [29] = intravenous injection, 0.25 mg/mouse
# [30] = intravenous injection, 0.5 mg/mouse
# [31] = intravenous injection, 1.0 mg/mouse
# [32] = subcutaneous injection, 1.0 mg/mouse
# [33] = subcutaneous injection, 2.0 mg/mouse
# [34] = subcutaneous injection, 3.0 mg/mouse
# [35] = subcutaneous injection, 4.0 mg/mouse
# [36] = before administration (baseline)
# [37] = probit method from surviving numbers after 7 days, subcutaneous
structure (smiles),measurement,setting,value
CC[C@H]1OC(=O)C[C@@H](O)[C@H](C)[C@@H](O[C@@H]2O[C@H](C)C(O)C(N(C)C)C2O)[C@@H](CCN2CCCCCCC2)C[C@@H](C)C(=O)/C=C/C(C)=C/[C@@H]1CN1CCCCCCC1 (stereo partly shown) [Compound C-8],MIC,[1],0.78 µg/mL
same,MIC,[2],1.56 µg/mL
same,MIC,[3],3.13 µg/mL
same,MIC,[4],6.25 µg/mL
same,MIC,[5],1.56 µg/mL
same,MIC,[6],3.13 µg/mL
same,MIC,[7],0.20 µg/mL
same,MIC,[8],0.20 µg/mL
same,MIC,[9],6.25 µg/mL
same,MIC,[10],0.78 µg/mL
same,MIC,[11],12.5 µg/mL
same,MIC,[12],0.78 µg/mL
same,MIC,[13],0.78 µg/mL
same,MIC,[14],1.56 µg/mL
same,MIC,[15],1.56 µg/mL
same,MIC,[16],0.39 µg/mL
same,MIC,[17],0.78 µg/mL
same,MIC,[18],0.39 µg/mL
same,Dissection finding,[19]; [29],no abnormal finding
same,Surviving number,[19]; [29],3/3
same,Dissection finding,[19]; [30],no abnormal finding
same,Surviving number,[19]; [30],3/3
same,Dissection finding,[19]; [31],no abnormal finding
same,Surviving number,[19]; [31],3/3
same,Surviving number,"[19]; intravenous injection, 1.5 mg/mouse",0/1 (immediate death)
same,Surviving number,"[19]; intravenous injection, 2.0 mg/mouse",0/3 (immediate death)
same,Surviving number,"[19]; intravenous injection, 4.0 mg/mouse",0/1 (immediate death)
same,Dissection finding,[19]; [32],Sores and alopecia at the administration part
same,Surviving number / number of used animals,[19]; [32],2/2
same,Dissection finding,[19]; [33],Sores and alopecia at the administration part
same,Surviving number / number of used animals,[19]; [33],2/2
same,Dissection finding,[19]; [34],Sores and alopecia at the administration part
same,Surviving number / number of used animals,[19]; [34],2/2
same,Dissection finding,[19]; [35],Sores and alopecia at the administration part
same,Surviving number / number of used animals,[19]; [35],2/2
CC[C@H]1OC(=O)C[C@@H](O)[C@H](C)[C@@H](O[C@@H]2O[C@H](C)C(O)C(N(C)C)C2O)[C@@H](CC=O)C[C@@H](C)C(=O)/C=C/C(C)=C/[C@@H]1CN1CCCCC1 (stereo partly shown),MIC,[1],0.20 µg/mL
same,MIC,[2],0.39 µg/mL
same,MIC,[3],0.39 µg/mL
same,MIC,[4],6.25 µg/mL
same,MIC,[5],0.78 µg/mL
same,MIC,[6],0.78 µg/mL
same,MIC,[7],0.10 µg/mL
same,MIC,[8],0.78 µg/mL
same,MIC,[10],0.78 µg/mL
same,MIC,[11],6.25 µg/mL
same,MIC,[12],3.13 µg/mL
same,MIC,[13],0.20 µg/mL
same,MIC,[14],>100 µg/mL
same,MIC,[15],0.78 µg/mL
same,MIC,[16],0.78 µg/mL
same,MIC,[17],0.39 µg/mL
same,MIC,[18],0.39 µg/mL
same,Average clinical score,"[20]; 1 day after completion of administration, cattle, 10 mg/kg subcutaneous",3.3
same,Average clinical score,[20]; 2 days after completion of administration,2.5
same,Average clinical score,[20]; 3 days after completion of administration,2.0
same,Average clinical score,[20]; 4 days after completion of administration,1.8
same,Effective rate (%) in clinical effect,[20]; (remarkably effective + effective case number)/test case number × 100,50%
same,Average symptomatic improvement rate (%),[20]; (score before − score after administration)/score before × 100,75.9%
same,Average clinical score,"[20]; at administration (baseline), cattle, 10 mg/kg subcutaneous",7.5
same,A little effective (%) (case number),[20]; improvement rate 50 to under 70,50 (3) % (case number)
same,Effective (%) (case number),[20]; improvement rate 70 to under 85,33 (2) % (case number)
same,Remarkably effective (%) (case number),[20]; improvement rate 85 to 100,17 (1) % (case number)
same,Ineffective (%) (case number),[20]; improvement rate under 50,0 (0) % (case number)
same,Separation rate (%) at completion (number of animal),[21]; at completion,50 (3/6) % (number of animal)
same,Separation rate (%) before administration (number of animal),[21]; [36],100 (6/6) % (number of animal)
same,Separation rate (%) at completion (number of animal),[22]; at completion,17 (1/6) % (number of animal)
same,Separation rate (%) before administration (number of animal),[22]; [36],17 (1/6) % (number of animal)
same,Separation rate (%) at completion (number of animal),[23]; at completion,0 (0/6) % (number of animal)
same,Separation rate (%) before administration (number of animal),[23]; [36],0 (0/6) % (number of animal)
same,Separation rate (%) before administration (number of animal),[24],33 (2/6) % (number of animal)
same,Separation rate (%) at completion (number of animal),[25]; at completion,33 (2/6) % (number of animal)
same,Separation rate (%) before administration (number of animal),[25]; [36],67 (4/6) % (number of animal)
same,Separation rate (%) at completion (number of animal),[26]; at completion,33 (2/6) % (number of animal)
same,Separation rate (%) before administration (number of animal),[26]; [36],100 (6/6) % (number of animal)
same,Surviving number after 7 days/test number,[27]; dose 1 mg/kg subcutaneous one hour after infection,0/10
same,Surviving number after 7 days/test number,[27]; dose 5 mg/kg subcutaneous one hour after infection,1/10
same,Surviving number after 7 days/test number,[27]; dose 10 mg/kg subcutaneous one hour after infection,3/10
same,Surviving number after 7 days/test number,[27]; dose 20 mg/kg subcutaneous one hour after infection,10/10
same,Surviving number after 7 days/test number,[27]; dose 30 mg/kg subcutaneous one hour after infection,10/10
same,ED50 (95% confidence limit),[27]; [37],10.3 mg/kg (7.7-13.4)
same,ED90,[27]; [37],18.3 mg/kg
same,MIC,[28],1.56 µg/mL
